Assay results as given in patent US20050075398A1, “Neuroprotectin D1 protects against cellular apoptosis, stroke damage, alzheimer's disease and retinal diseases” (priority 2003, published 2005).

Legend:
[1] = tested on: IL-1β-induced HIF-1α activation; assay: EMSA of HIF-1α in IL-1β-exposed human neural progenitor cells; assay type: cell-based; details: HN progenitor cells; IL-1β 10 ng/ml 3 h
Protocol: (§1) Human neural (HN) progenitor cells in primary culture. HN cells were grown to ˜70% confluence (˜50,000 cells per 3.5-cm diameter well) in 6-well COSTAR plates at 37° C., 5% CO2/20% O2/75% N2 in humidified air at 1 atm (normoxic conditions) in NPMM medium (Clonetics CC-4241) supplemented with hFGF, NSF-1, hEGF, GA-1000, as described by the manufacturer (Clonetics, Walkersville, Md.). HN cells tested negative for HIV-1, hepatitis B and C, mycoplasma, bacteria, yeast, and fungi, and positive for the glial and neuronal markers GFAP, MAP2, and β-tubulin III (Clonetics). […]
(§2) Electrophoretic mobility-shift assay (EMSA) of human AP1, HIF-1α, NF-κBp50/p65, and STAT-1α. Nuclear protein extracts (NPXTs) were prepared from one to three 3.5 cm-diameter wells of HN cells and quantitated. NPXTs (5 μg) derived from HN cells were incubated with[γ-^32P]-ATP (˜3000 Ci/mmol)-end-labeled AP1, HIF-1α, NF-κκBp50/p65, or STAT-1α consensus and mutant oligonucleotides in 5-μl volumes, reacted for 30 min on ice, analyzed on 5% or 10% acrylamide/90 mM Tris-borate pH 8.4, 1 mM EDTA (TBE) gels, dried onto 2-mm Whatman filter paper at 80° C. for 2 h, and phosphorimaged using a Typhoon Variable Mode Imager (Amersham Pharmacia Biotech, Piscataway, N.J. ).

AP1-DNA binding activity = assay: EMSA of AP1 in IL-1β-exposed human neural progenitor cells; assay type: cell-based; details: HN progenitor cells
Protocol: as §1, §2

COX-2 expression = assay: COX-2 mRNA abundance in ipsilateral hippocampus after MCA-O; assay type: in vivo, mouse; details: 1 h MCA-O, 2 h reperfusion, infused into third ventricle (NPD1 0.16 μg/ml)
Protocol: (§3) COX-2 RNA abundance in hippocampus and HN cells. Abundance of human-specific COX-1 and COX-2 RNA message was assayed using RT-PCR as described in Bazan, N. G., and Lukiw, W. J. (2002) J. Biol. Chem. 277, 30359-30367.
To determine COX-1 and COX-2 expression, mRNA abundance in the ipsilateral hippocampus was measured. […] A 3-fold increase of COX-2 was seen due to MCA-O reperfusion (FIG. 7C). The infusion of the precursor DHA as well as its product 10,17S-docosatriene (NPD1) inhibited COX-2 expression by 14% and 52%, respectively.

Bcl-xL = assay: Western blot of Bcl-xL in ARPE-19 cells under TNFα/H2O2; assay type: cell-based, human; details: 50 nM; TNFα plus H2O2 (400 or 800 μM) 6 h
Protocol: Analysis of pro- and anti-apoptotic proteins in ARPE-19 cells: Bcl-2 family proteins were analyzed by Western-blot analysis. In brief, 20-μg equivalents of each cell extract were subjected to electrophoresis on a 8-16% gel (Promega, Madison, Wis.) at 125 volts for 2 h. The proteins were transferred to nitrocellulose membrane at 30 volts for 1 h at 4° C. The membranes were subjected to treatment with primary antibodies of Bcl-2, Bcl-xL, Bax, and Bad for 1 h at room temperature, and probed 30 min with secondary antibody, goat anti-rabbit Ig:HRPO and HRP-conjugated anti-biotin antibody. (BD Sciences—Pharminogen, San Diego, Calif.) Then proteins were evaluated using an ECL kit. (Amersham Biosciences Corp., Piscataway, N.J.)
Using the same TNFα/H2O2 concentrations, Bcl-2 proteins were assayed. Cells were grown for 72 h after plating, placed in serum-free medium for 1 h, then incubated with TNFα/H2O2 for 6 h. Protein expression and Western-blot analysis were performed as described in Example 13. Data in FIGS. 14A, 14B, 14C and 14D represent four independent experiments with triplicate samples in each case. Anti-apoptotic protein Bcl-xL was enhanced in ARPE-19 cells by TNFα/H2O2 (800 μM) (FIG. 14B, first bar), whereas Bcl-2 was not changed (FIG. 14A, first bar).

STAT-1 = assay: EMSA of STAT-1 in IL-1β-exposed human neural progenitor cells; assay type: cell-based; details: HN progenitor cells
Protocol: as §1, §2

COX-1 mRNA = COX-1 mRNA in human neural progenitor cells; assay type: cell-based
Protocol: (§4) Human neural (HN) progenitor cells in primary culture. HN cells were grown to ˜70% confluence (˜50,000 cells per 3.5-cm diameter well) in 6-well COSTAR plates at 37° C., 5% CO2/20% O2/75% N2 in humidified air at 1 atm (normoxic conditions) in NPMM medium (Clonetics CC-4241) supplemented with hFGF, NSF-1, hEGF, GA-1000, as described by the manufacturer (Clonetics, Walkersville, Md.). HN cells tested negative for HIV-1, hepatitis B and C, mycoplasma, bacteria, yeast, and fungi, and positive for the glial and neuronal markers GFAP, MAP2, and β-tubulin III (Clonetics). After two weeks of development, HN cells were exposed to human recombinant interleukin 1-beta (IL-1β) (10 ng/ml) for 3 h in the presence or absence of 0.03, 0.3, 3.0, 30, and 300 nM 10,17S-docosatriene (NPD1), DHA, or PBS pH 7.4 (control). RNA and protein were quickly isolated using Trizol Reagent (Invitrogen, Carlsbad, Calif.) and stored at −81° C. within minutes of isolation.
as §3

IL-1β gene expression = assay: HGU133 GeneChip DNA array in HN cells: IL-1β; assay type: cell-based, human; details: Aβ42 25 μM, DHA 50 nM or NPD1 50 nM, 18 h, nsc = no significant change
COX-2 mRNA = COX-2 mRNA in IL-1β-exposed human neural progenitor cells; assay type: cell-based; details: p<0.05
Protocol: as §4, §3

Bcl-xL gene expression = assay: HGU133 GeneChip DNA array in HN cells: Bcl-xL; assay type: cell-based, human; details: Aβ42 25 μM, DHA 50 nM or NPD1 50 nM, 18 h, nsc = no significant change
Bcl-2 gene expression = assay: HGU133 GeneChip DNA array in HN cells: Bcl-2; assay type: cell-based, human; details: Aβ42 25 μM, DHA 50 nM or NPD1 50 nM, 18 h, nsc = no significant change

CC/C=C\C[C@H](O)\C=C/C=C/C=C/[C@H](O)C/C=C\C/C=C\CCC(=O)O [NPD1, 10,17S-docosatriene]
effect on IL-1β-induced HIF-1α activation [1]: but not IL-1β-induced HIF-1α activation, was inhibited
effect on IL-1β-induced AP1-DNA binding activity (AP1-DNA binding activity): did not affect
inhibition of COX-2 expression (mRNA) (COX-2 expression): 52%
effect on Bcl-xL expression (Bcl-xL): increased expression
effect on STAT-1 (STAT-1): unaffected
effect on basal level of COX-1 mRNA (COX-1 mRNA): seemed to decrease
IL-1β gene expression, fold change over untreated controls (IL-1β gene expression): nsc
effect on IL-1β-induced expression of COX-2 mRNA (COX-2 mRNA): inhibited
Bcl-xL gene expression, fold change over untreated controls (Bcl-xL gene expression): +2.4 fold
Bcl-2 gene expression, fold change over untreated controls (Bcl-2 gene expression): +3.3 fold
